{"source": "paper PMC1828167", "about": "“HIV-1 integrase inhibitors are substrates for the multidrug transporter MDR1-P-glycoprotein” (Retrovirology, 2007)", "key": {"[1]": {"test_system": "HTLVIIIB laboratory strain of HIV-1 virus", "test": "Anti-HIV activity in HIV-infected H9 cells (p24 antigen ELISA)", "type": "cell-based", "settings": "HIV infected H9 cell line, 3 days, 50% Effective Concentration", "procedure": "(§1) Anti-HIV activity was measured in the human T lymphoid H9 cells. To this purpose, cells were cultured in RPMI 1640, supplemented with 2 mM L-glutamine, penicillin, streptomycin and 10% fetal bovine serum (FBS), and infected with the HTLVIIIB laboratory strain of HIV-1 virus (100000 TCID50 – Tissue Culture Infective Dose- per 10^6 […]). After two hours of incubation, cells were washed with medium, and cultured at 37°C (5000 cells/well in 96-well microplates) for 3 days in presence of medium and test compounds at concentrations ranging from 50 μM to 0.1 μM. After 3 days p24 antigen concentration in the supernatants was measured by an ELISA assay (Innotest HIV antigen mAb, Innogenetics NV Belgium). Cell viability was determined by the trypan blue exclusion method.\n(§2) The 50% inhibitory drug concentration (IC50) and the 50% cytotoxic drug concentration (CC50) were calculated by the median effect equation using Calcusyn Version 2.0 program (Biosoft Cambridge)"}, "[2]": {"molecular_target": "T1, MDR1-P-glycoprotein (P-gp) (Homo sapiens, UniProt P08183)", "T1 sequence (P08183 whole entry)": "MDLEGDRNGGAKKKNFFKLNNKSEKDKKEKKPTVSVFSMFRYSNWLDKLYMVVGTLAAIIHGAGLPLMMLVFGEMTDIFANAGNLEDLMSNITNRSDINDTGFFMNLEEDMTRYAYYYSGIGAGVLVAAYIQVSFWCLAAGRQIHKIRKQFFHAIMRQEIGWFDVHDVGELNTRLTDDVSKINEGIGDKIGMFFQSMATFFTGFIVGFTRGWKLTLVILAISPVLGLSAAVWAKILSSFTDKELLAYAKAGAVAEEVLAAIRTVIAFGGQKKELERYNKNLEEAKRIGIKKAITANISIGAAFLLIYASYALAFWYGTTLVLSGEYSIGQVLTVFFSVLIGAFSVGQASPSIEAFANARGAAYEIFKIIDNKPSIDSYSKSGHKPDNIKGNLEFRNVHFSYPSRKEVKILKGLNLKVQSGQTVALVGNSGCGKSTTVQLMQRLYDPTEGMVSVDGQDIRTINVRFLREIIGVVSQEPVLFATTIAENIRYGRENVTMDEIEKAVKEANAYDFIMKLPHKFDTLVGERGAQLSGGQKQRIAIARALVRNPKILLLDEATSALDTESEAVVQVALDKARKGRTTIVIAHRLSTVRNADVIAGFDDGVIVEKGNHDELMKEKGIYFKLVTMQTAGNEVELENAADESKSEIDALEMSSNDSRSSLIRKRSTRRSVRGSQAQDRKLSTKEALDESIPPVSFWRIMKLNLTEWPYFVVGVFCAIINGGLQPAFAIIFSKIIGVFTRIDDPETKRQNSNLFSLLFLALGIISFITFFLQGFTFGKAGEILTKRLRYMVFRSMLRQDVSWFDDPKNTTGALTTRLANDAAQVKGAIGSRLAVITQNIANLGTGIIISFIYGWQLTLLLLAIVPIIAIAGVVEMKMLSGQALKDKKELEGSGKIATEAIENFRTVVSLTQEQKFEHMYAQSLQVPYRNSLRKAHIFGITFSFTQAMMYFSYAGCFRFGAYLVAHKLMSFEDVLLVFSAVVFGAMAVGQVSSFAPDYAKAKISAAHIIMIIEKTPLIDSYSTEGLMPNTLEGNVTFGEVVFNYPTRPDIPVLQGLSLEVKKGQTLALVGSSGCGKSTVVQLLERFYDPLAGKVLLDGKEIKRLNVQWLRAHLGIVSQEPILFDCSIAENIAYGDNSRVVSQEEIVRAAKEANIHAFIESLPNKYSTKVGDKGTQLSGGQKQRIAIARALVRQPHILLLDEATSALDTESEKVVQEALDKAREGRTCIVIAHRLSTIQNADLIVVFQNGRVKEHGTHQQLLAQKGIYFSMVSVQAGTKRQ", "test": "UIC2 shift assay (P-gp functional conformation) in CEM-VBL10 cells", "type": "cell-based", "parameters": "CEM-VBL10 and CEM-VBL100 cells were isolated by stepwise selection of the parental drug sensitive CCRF-CEM (CEM) in the presence of increasing concentrations of VBL; endogenous in cells; host or cells: CEM-VBL10 (UIC2 shift assay) and CEM-VBL100 (doxorubicin efflux assay), MDR variants of CCRF-CEM; key to UIC2 epitope up-modulation (A): the + or ++ symbols indicate arbitrary units in measuring and differentiating the level of UIC2 epitope modulation and doxorubicin retention; the + or ++ symbols indicate arbitrary units in measuring and differentiating the level of UIC2 epitope modulation and doxorubicin retention", "settings": "for mAb UIC2 reactivity: 37°C (Fig 1)", "procedure": "(§3) The anti CD4-FITC mAb was purchased from Vinci Biochem, Firenze, Italy. The mAb UIC2 [30] was kindly provided by Dr. E. Mechetner (Chemicon Inc, Temecula, CA). For determination of P-gp expression, the mAb MM4.17, recognizing an extracellular P-gp epitope on intact/living human MDR cells, was also used. Both UIC2 and MM4.17 mAbs were used in a highly purified form.\nThe UIC2 shift assay was performed under physiological conditions as previously described. CEM-VBL10 cells (1 × 10^6) were resuspended in 1 ml of PBS containing 2% FCS and allowed to equilibrate at 37°C in a water bath for 10 min. The various IINs were added to samples (final concentrations 100 or 50 μg/ml) and incubated for additional 15 min at 37°C with purified UIC2 mAb (final concentration 12.5 μg/ml). VBL (10 μg/ml), which is a well known UIC2 shifting agent, and the drug diluents were used as positive and negative controls, respectively. Cells were then washed twice in ice-cold PBS containing 2% FCS with 0.01 % sodium azide (Shift Stop Buffer, SSB), stained on ice in SSB for additional 15 min with 5 μg/ml of fluorescein -conjugated goat-antimouse antibody (FITC-GAM, Cappel, West Chester, Pa, USA), washed twice with ice cold PBS/FACS and maintained in ice until flow cytometry analysis. The UIC2 shift is the difference between UIC2 binding in the presence versus the absence of the IINs under physiological conditions (37°C)."}, "[3]": {"molecular_target": "T1, MDR1-P-glycoprotein (P-gp)", "test": "Doxorubicin efflux/retention in KB-V1 MDR cells (confocal microscopy)", "settings": "25 μg/ml, 5 μg/ml doxorubicin, 1 and 3 hrs of extrusion"}, "HIV-1 Integrase (IN)": {"molecular_target": "HIV-1 Integrase (IN)", "parameters": "method as in PMID 16539381", "settings": "HIV-1 integration strand transfer step; 50% Inhibitory Concentration; cited from earlier work"}, "[4]": {"test_system": "P-gp expression in CEMrev cells", "test": "Induction of P-gp expression in CEMrev cells (flow cytometry)", "type": "cell-based, human", "settings": "for % of P-gp expressing cells: CEMrev", "excerpt": "Similarly to some of the isozymes involved in drug metabolism, the expression of P-gp is inducible. It is therefore important to assess whether P-gp induction occurs upon exposure to IINs, with potential implications for drug metabolism. To this aim, we investigated whether the treatment with the IINs RDS 1974, RDS 1983, RDS 1984 and RDS 1996, all having different biological and physicochemical properties (Table 1), modulate P-gp expression in the human CD4+ CEM cell system. The parental drug sensitive CEM cell line and the revertant of its derivative CEM-VBL10 MDR cell variant (CEMrev), expressing very low or undetectable amount of P-gp, were cultured in the presence of the indicated IINs ([…]; 25 μg/ml for RDS 1983 and RDS 1984) for 28 days (RDS 1983, RDS 1984 and RDS 1996) or 104 days (RDS 1974). As a control for P-gp modulation, CEMrev cells were exposed to VBL, shown to increase P-gp expression.\nThe multidrug resistant (MDR) variants CEM-VBL10 and CEM-VBL100 cells were isolated by stepwise selection of the parental drug sensitive CCRF-CEM (CEM) in the presence of increasing concentrations of VBL [31, 32]. Cells were grown under standard conditions for mammalian cells cultured in suspension. The basic medium (BM) for cell culturing consisted of RPMI-1640 supplemented with 10% foetal calf serum (FCS), L-glutamine (2 mM) penicillin (100 U/mL) and streptomycin (100 U/mL). All these components were purchased from Hyclone (Logan, Utah). Identical BM, culture conditions and trypsin (Hyclone) were used for the adherent MDR variant KB.V1 of the human oral epidermoid carcinoma KB cells. To test the ability of selected IINs (RDS 1974, […], RDS 1984 and RDS 1996) to induce de novo expression of P-glycoprotein, the drug-sensitive CEMrev cell line was used; this cell line derives from the CEM-VBL10 MDR cell line, cultured for more than 2 years in VBL-free medium and expresses very low (1–3%) or undetectable amounts of P-gp.\nas §3"}, "[5]": {"test_system": "P-gp expression in CEM cells", "test": "Induction of P-gp expression in parental drug sensitive CEM cells (flow cytometry)", "type": "cell-based, human", "settings": "25 μg/ml, 28 days of culture", "excerpt": "Similarly to some of the isozymes involved in drug metabolism, the expression of P-gp is inducible. It is therefore important to assess whether P-gp induction occurs upon exposure to IINs, with potential implications for drug metabolism. To this aim, we investigated whether the treatment with the IINs RDS 1974, RDS 1983, RDS 1984 and RDS 1996, all having different biological and physicochemical properties (Table 1), modulate P-gp expression in the human CD4+ CEM cell system. The parental drug sensitive CEM cell line and the revertant of its derivative CEM-VBL10 MDR cell variant (CEMrev), expressing very low or undetectable amount of P-gp, were cultured in the presence of the indicated IINs (10 μg/ml for RDS 1974 and RDS 1996; 25 μg/ml for RDS 1983 and RDS 1984) for 28 days (RDS 1983, RDS 1984 and RDS 1996) or 104 days (RDS 1974). As a control for P-gp modulation, CEMrev cells were exposed to VBL, shown to increase P-gp expression.\nThe multidrug resistant (MDR) variants CEM-VBL10 and CEM-VBL100 cells were isolated by stepwise selection of the parental drug sensitive CCRF-CEM (CEM) in the presence of increasing concentrations of VBL [31, 32]. Cells were grown under standard conditions for mammalian cells cultured in suspension. […]"}, "[6]": {"molecular_target": "T1, MDR1-P-glycoprotein (P-gp)", "test": "MDR efflux assay: doxorubicin efflux inhibition in CEM-VBL100 cells (flow cytometry)", "type": "cell-based", "parameters": "CEM-VBL10 and CEM-VBL100 cells were isolated by stepwise selection of the parental drug sensitive CCRF-CEM (CEM) in the presence of increasing concentrations of VBL; endogenous in cells; host or cells: CEM-VBL10 (UIC2 shift assay) and CEM-VBL100 (doxorubicin efflux assay), MDR variants of CCRF-CEM; key to Doxorubicin efflux inhibition (B): the + or ++ symbols indicate arbitrary units in measuring and differentiating the level of UIC2 epitope modulation and doxorubicin retention; the + or ++ symbols indicate arbitrary units in measuring and differentiating the level of UIC2 epitope modulation and doxorubicin retention", "settings": "for Doxorubicin efflux inhibition (B): CEM-VBL100 cells", "procedure": "[…] The cells were incubated with doxorubicin (10 μg/ml) only or drug diluent in parallel cultures. At the end of incubation, the cells were washed in serum-free medium and resuspended in BM in the presence of the IINs or Verapamil (drug diluent was added in control samples) for a further 1 h at 37°C. Finally, cells were washed twice with ice-cold PBS/FACS, and analyzed in a flow cytometer (FACScan, Becton Dickinson, San Josè, CA)."}, "[7]": {"test": "Cytotoxicity in HIV infected H9 cell line (trypan blue exclusion)", "type": "cell-based, human", "settings": "human, HIV-1 (HTLVIIIB) infected H9 T lymphoid cells, 50% Cytotoxic Concentration", "procedure": "as §1, §2"}, "H9 cells": {"test_system": "H9 cells", "test": "Cytotoxicity in HIV infected H9 cell line (trypan blue exclusion)", "type": "cell-based, human", "settings": "50% Cytotoxic Concentration", "procedure": "as §1, §2"}}, "data": [{"smiles": "O=C(O)/C(O)=C/C(=O)c1cn(Cc2c(F)cccc2F)c2ccccc2c1=O", "note": "[RDS 1984]", "values": [{"measurement": "EC50", "setting": "[1]; Human immunodeficiency virus 1, 72 h", "value": 9.64, "unit": "µM"}, {"measurement": "mAb UIC2 reactivity", "setting": "[2]; 50 μg/ml", "value": "increased"}, {"measurement": "doxorubicin retention", "setting": "[3]", "value": "doxorubicin was retained"}, {"measurement": "IC50", "setting": "HIV-1 Integrase (IN)", "value": 0.019, "unit": "µM"}, {"measurement": "% of P-gp expressing cells", "setting": "[4]; 25 μg/ml, 28 days of culture", "value": "15–18%"}, {"measurement": "% of P-gp expressing cells", "setting": "[5]", "value": 0, "unit": "%"}, {"measurement": "intracellular accumulation of doxorubicin", "setting": "[6]; CEM-VBL100 MDR cells, 1 μg/ml to 100 μg/ml (Fig 2)", "value": "intracellular accumulation of doxorubicin with a dose dependent effect"}, {"measurement": "CC50 at 3 days", "setting": "[7]", "value": "> 50", "unit": "µM"}]}, {"smiles": "O=C(O)C(=O)/C=C(\\O)c1ccc2c(c1)c(=O)c(/C(O)=C/C(=O)C(=O)O)cn2Cc1ccc(F)cc1", "note": "[RDS 1997]", "values": [{"measurement": "EC50", "setting": "[1]", "value": 2.44, "unit": "µM"}, {"measurement": "UIC2 epitope up-modulation (A)", "setting": "[2]; 50 μg/ml", "value": "+"}, {"measurement": "UIC2 epitope up-modulation (A)", "setting": "[2]; 100 μg/ml", "value": "++"}, {"measurement": "Doxorubicin efflux inhibition (B)", "setting": "[6]; 25 μg/ml", "value": "+"}, {"measurement": "Doxorubicin efflux inhibition (B)", "setting": "[6]; 50 μg/ml", "value": "++"}, {"measurement": "CC50", "setting": "H9 cells", "value": "> 50", "unit": "µM"}]}, {"smiles": "CC[C@]1(O)C[C@@H]2CN(CCc3c([nH]c4ccccc34)[C@@](C(=O)OC)(c3cc4c(cc3OC)N(C)[C@H]3[C@@](O)(C(=O)OC)[C@H](OC(C)=O)[C@]5(CC)C=CCN6CC[C@]43[C@@H]65)C2)C1", "note": "[Vinblastine]", "values": [{"measurement": "mAb UIC2 reactivity", "setting": "[2]; 10 μg/ml", "value": "increased"}, {"measurement": "P-gp expression (in words)", "setting": "[4]; CEMrev cell line, compared with the drug diluent control", "value": "strong induction of P-gp expression"}, {"measurement": "% of P-gp expressing cells", "setting": "[4]; 10 μg/ml, 28 days of culture", "value": "30–35%"}, {"measurement": "% of P-gp expressing cells", "setting": "[4]; 10 μg/ml, 104 days of culture", "value": "60–70%"}]}]}
